Among the data in patent US11839613B2, “Pyrimidine derivatives as PGE2 receptor modulators” (IDORSIA PHARMACEUTICALS LTD, priority 2017, dated 2023) are IC50 values, retold here.

Holding throughout (assay type): cell-based
One experiment deals with EP2 (Homo sapiens (Human), UniProt P43116). As to the kind of experiment: hEP2 cAMP assay (SF295 glioblastoma cells, HTRF cAMP). The settings on record: antagonistic activity. From the text: (§1) Human tumor cell lines expressing endogenously either EP4 or EP2 are used and cAMP accumulation in cells upon PGE2 stimulation is monitored. SF295 glioblastoma cells express high endogenous EP2 and no EP4, whereas BT549 breast cancer cells, express high endogenous EP4 levels and very low EP2 levels.
(§2) As a detection method for cAMP the HTRF (homogeneous time resolved fluorescence) Cisbio kit (HTRF cAMP dynamic 2 kit 20'000 tests Cisbio Cat. #62AM4PEC) was used, which is based on a competitive immunoassay using a Cryptate-labeled anti-cAMP antibody and d2-labeled cAMP. Native cAMP produced by cells or unlabeled cAMP (for the standard curve) compete with exogenously added d2-labeled cAMP (acceptor) for binding to monoclonal anti-cAMP-Eu3+Cryptate (donor). A FRET signal (Fluorescence Resonance Energy Transfer) is obtained only if the labeled anti-cAMP antibody binds the d2 labelled cAMP, thus the specific signal (i.e. energy transfer) is inversely proportional to the concentration of cAMP in the standard or sample.
(§3) Cells are counted washed and resuspended in assay buffer (AB; HBSS, 20 mM HEPES, 0.2% BSA; 2 mM IBMX).
Plate is pre-incubated 45 minutes at RT. […] Plate is incubated 30 minutes at RT.

A further experiment concerns the target EP4 (Homo sapiens (Human), UniProt P35408). The experiment in a line: hEP4 cAMP assay (BT549 breast cancer cells, HTRF cAMP). The settings on record: antagonistic activity, PGE2 6 nM.
Source text: as §1, §2, §3
Plate is pre-incubated 45 minutes at RT. Subsequently, 2.5 microliters of PGE2 (final conc. 6 nM) are transferred into the assay plate. Plate is incubated 30 minutes at RT.

For a further experiment, the target named is PTGER2 (EP2) (Homo sapiens (Human), UniProt P43116). The experiment in a line: hEP2 b-arrestin assay (PathHunter HEK 293 PTGER2 b-arrestin cells). As to conditions: antagonistic activity, beta-arrestin assay; read-out: hEP2 b-arr IC50. As to the method: Plate is pre-incubated 15 minutes at 37° C. Then five microliters of PGE2 (final conc. 5 μM) are transferred into the assay plate. Plate is incubated 120 minutes at 37° C.
(each concentration is measured in duplicate)

Sequence of PTGER2 (EP2) (P43116 whole entry): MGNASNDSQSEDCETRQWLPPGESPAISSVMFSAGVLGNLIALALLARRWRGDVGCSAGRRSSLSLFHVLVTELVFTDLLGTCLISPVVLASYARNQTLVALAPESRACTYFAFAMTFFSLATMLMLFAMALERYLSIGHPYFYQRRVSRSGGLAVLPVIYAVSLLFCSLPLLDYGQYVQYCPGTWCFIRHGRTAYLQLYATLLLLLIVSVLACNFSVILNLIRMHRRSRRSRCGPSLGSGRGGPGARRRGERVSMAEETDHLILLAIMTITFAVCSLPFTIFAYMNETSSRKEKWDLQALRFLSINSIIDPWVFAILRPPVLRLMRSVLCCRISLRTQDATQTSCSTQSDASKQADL
Sequence of EP2 (P43116 whole entry): as above
Sequence of EP4 (P35408 whole entry): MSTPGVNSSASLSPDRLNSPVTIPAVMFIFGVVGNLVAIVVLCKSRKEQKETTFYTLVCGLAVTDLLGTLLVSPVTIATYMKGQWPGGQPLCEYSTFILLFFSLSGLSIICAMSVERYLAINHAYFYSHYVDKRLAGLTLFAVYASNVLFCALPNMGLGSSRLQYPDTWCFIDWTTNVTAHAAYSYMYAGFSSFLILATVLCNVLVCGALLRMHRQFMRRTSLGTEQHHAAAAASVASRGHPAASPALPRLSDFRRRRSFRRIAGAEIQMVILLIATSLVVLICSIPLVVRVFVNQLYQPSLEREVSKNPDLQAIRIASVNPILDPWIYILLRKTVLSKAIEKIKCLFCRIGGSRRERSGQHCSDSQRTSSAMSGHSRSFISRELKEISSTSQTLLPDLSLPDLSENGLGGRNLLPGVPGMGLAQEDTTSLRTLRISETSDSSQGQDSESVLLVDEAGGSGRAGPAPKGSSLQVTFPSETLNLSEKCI

As to `CCOc1cc(-c2cc(NCCc3cc4c(cc3OC)OCCO4)ncn2)ccc1C(=O)O` [Ex 286], the IC50 – broadly, the concentration that gives 50% inhibition – was found to be 86 nM on EP2, 515 nM at EP4 and 198 nM on PTGER2 (EP2).
In the case of `COc1cc2c(cc1CCNc1cc(-c3ccc(C(=O)O)c(OC4CCC4)c3)ncn1)OCO2` [Ex 213, 2-Cyclobutoxy-4-{6-[2-(6-methoxy-benzo[1,3]dioxol-5-yl)-ethylamino]-pyrimidin-4-yl}-benzoic acid], the half-maximal inhibitory concentration (IC50) is 46 nM at EP2, 256 nM at EP4 and 59 nM at PTGER2 (EP2).
For `O=C(O)c1ccc(-c2cc(NCCc3c(F)cc4ncccc4c3F)ncn2)cc1OC1CCC1` [Ex 228], the IC50 stood at 194 nM at EP2, 300 nM on EP4 and 392 nM at PTGER2 (EP2).
For `CCOc1cc(-c2cc(NCCc3ccc4ccccc4c3C)ncn2)sc1CC(=O)OC` [Ex 316], the IC50 at EP2 was found to be 792 nM; against EP4 it was 729 nM.
The corresponding values for `COc1cc2ccccc2cc1CCNc1cc(-c2cc(OC)c(C(=O)O)c(OC)c2)ncn1` [Ex 300] are 312 nM and 624 nM.
Taken in the same sequence, the figures for `COc1cc(-c2cc(NCCc3ccc4sccc4c3)ncn2)cc(OC)c1C(=O)O` [Ex 320, 4-[6-(2-Benzo[b]thiophen-5-yl-ethylamino)-pyrimidin-4-yl]-2,6-dimethoxy-benzoic acid] were 440 nM and 766 nM.
Taken in the same sequence, the figures for `CCOc1cc(-c2cc(NCCc3ccc4cc[nH]c4c3)ncn2)ccc1CC(=O)O` [Ex 271] were 638 nM and 439 nM.
For `Cc1c(CCNc2cc(-c3ccc(-c4nc(O)no4)cc3)ncn2)ccc2ccccc12` [Ex 302], the IC50 amounted to 384 nM on EP2 and 520 nM against EP4.
Taken in the same sequence, the figures for `CCOc1cc(-c2cc(NCCc3cc4ccccc4cc3OC(F)F)ncn2)ccc1C(=O)O` [Ex 211] were 571 nM and 253 nM.
`CCSc1cc(-c2cc(NCCc3cc4ccoc4cc3F)ncn2)ccc1C(=O)O` [Ex 275]: the IC50 against EP2 was 102 nM; against EP4 it was 468 nM; at PTGER2 (EP2), 67 nM.
The corresponding values for `CCOc1cc(-c2cc(NCCc3cc4ccoc4cc3OC)ncn2)ccc1OC(C)C(=O)O` (stereo not drawn) [Ex 233, 2-(2-Ethoxy-4-{6-[2-(6-methoxy-benzofuran-5-yl)-ethylamino]-pyrimidin-4-yl}-phenoxy)-propionic acid] are 76 nM, 322 nM and 29 nM.
Take `CCOc1cc(-c2cc(NCCc3cc4c(cc3C)OCCO4)ncn2)ccc1C(=O)O` [Ex 327]: the IC50 against EP2 was found to be 159 nM; against EP4 it was 920 nM; at PTGER2 (EP2), 296 nM.
Taken in the same sequence, the figures for `CCOc1cc(-c2cc(NCCc3ccc4ccccc4c3C)ncn2)ccc1-c1noc(O)n1` [Ex 220] were 141 nM, 283 nM and 113 nM.
On to `Cn1[nH]c(=O)c2ccc(-c3cc(NCCc4ccc5cc[nH]c5c4)ncn3)cc21` [Ex 249], for which the IC50 against EP2 was found to be 171 nM; on EP4, 368 nM; on PTGER2 (EP2) it was 196 nM.
For `CCOc1cc(-c2cc(NCCc3cc4ccccc4cc3Cl)ncn2)ccc1OCC(=O)O` [Ex 247], the values for the IC50 at EP2 and on EP4 were 797 nM and 365 nM, respectively.
For `CCOc1cc(-c2cc(NCCc3cc4ccoc4cc3F)ncn2)ccc1OC(C)C(=O)O` (stereo not drawn) [Ex 236], the IC50 against EP2 stood at 147 nM; at EP4 it was 327 nM; at PTGER2 (EP2), 121 nM.
The corresponding values for `CCOc1cc(-c2cc(NCCc3cc4c(cc3OC(F)F)OCO4)ncn2)ccc1OCC(=O)O` [Ex 217] are 321 nM, 272 nM and 238 nM.
Regarding `CCOc1cc(-c2cc(NCCc3cc4c(cc3OC)OCO4)ncn2)ccc1OCC(=O)O` [Ex 239], the IC50 at EP2 came out at 222 nM; against EP4, 346 nM; on PTGER2 (EP2), 134 nM.
The corresponding values for `Fc1cc2ncccc2c(F)c1CCNc1cc(-c2ccc3cnccc3c2)ncn1` [Ex 318, [2-(5,7-Difluoro-quinolin-6-yl)-ethyl]-(6-isoquinolin-6-yl-pyrimidin-4-yl)-amine] are 247 nM, 753 nM and 408 nM.
Take `Cc1c(CCNc2cc(-c3cc(OCCO)c(C(=O)O)s3)ncn2)ccc2ccccc12` [Ex 48]: the IC50 came to 66 nM at EP2 and 22 nM on EP4.
For the compound `CC(C)Oc1cc2ccccc2cc1CCNc1cc(-c2ccc(C(=O)O)c(OC3CCC3)c2)ncn1` [Ex 264], the figures for the IC50 against EP2 and against EP4 were 11800 nM and 425 nM, respectively.
Taken in the same sequence, the figures for `COc1cc(-c2cc(NCCc3cc4cccnc4cc3F)ncn2)sc1C1(O)COC1` [Ex 283] were 618 nM and 502 nM.
Consider `CCOc1cc(-c2cc(NCCc3cc4ccccc4cc3OC(C)C)ncn2)ccc1CC(=O)O` [Ex 258], for which the IC50 against EP2 was 3610 nM; on EP4, 390 nM.
As to `CCOc1cc(-c2cc(NCCc3ccc4cc[nH]c4c3)ncn2)ccc1C(=O)O` [Ex 259, 2-Ethoxy-4-{6-[2-(1H-indol-6-yl)-ethylamino]-pyrimidin-4-yl}-benzoic acid], the IC50 against EP2 worked out at 302 nM; on EP4, 394 nM.
Taken in the same sequence, the figures for `NC(=O)c1ccc(-c2cc(NCCc3ccc4cc[nH]c4c3)ncn2)s1` [Ex 294, 5-{6-[2-(1H-Indol-6-yl)-ethylamino]-pyrimidin-4-yl}-thiophene-2-carboxylic acid amide] were 786 nM and 561 nM.
In the case of `CCOc1cc(-c2cc(NCCc3cc4c(cnn4C)cc3OC)ncn2)ccc1OCC(=O)O` [Ex 298], the IC50 against EP2 worked out at 716 nM; against EP4, 613 nM.
The corresponding values for `CCOc1cc(-c2cc(NCCc3cc4cccnc4c(F)c3Cl)ncn2)ccc1OCC(=O)O` [Ex 301] are 425 nM and 626 nM.
Taken in the same sequence, the figures for `NC(=O)c1ccc(-c2cc(NCCc3c(F)cc4ncccc4c3F)ncn2)s1` [Example 356, 5-{6-[2-(5,7-Difluoro-quinolin-6-yl)-ethylamino]-pyrimidin-4-yl}-thiophene-2-carboxylic acid amide] were 2340 nM and 828 nM.
`Oc1c(F)cc(-c2cc(NCCc3ccc4cc[nH]c4c3)ncn2)cc1F` [Ex 307, 2,6-Difluoro-4-{6-[2-(1H-indol-6-yl)-ethylamino]-pyrimidin-4-yl}-phenol]: the results for the IC50 against EP2 and against EP4 were 677 nM and 658 nM, respectively.
Taken in the same sequence, the figures for `CCOc1cc(-c2cc(NCCc3c(F)cc4ncccc4c3F)ncn2)ccc1C(=O)O` [Ex 304] were 408 nM and 652 nM.
The corresponding values for `CCOc1cc(-c2cc(NCCc3cc(Cl)c4c(c3)OCCO4)ncn2)ccc1C(=O)O` [Ex 324] are 899 nM and 858 nM.
The corresponding values for `CCOc1cc(-c2cc(NCCc3cc4ccccc4cc3OC)ncn2)cc(OC)c1C(=O)O` [Ex 282] are 296 nM and 498 nM.
`COc1cc2cc(F)oc2cc1CCNc1cc(-c2ccc(C(=O)O)c(OC3CCC3)c2)ncn1` [Ex 280]: the IC50 against EP2 stood at 514 nM; against EP4, 491 nM.
Taken in the same sequence, the figures for `Cc1c(Cl)c(CCNc2cc(-c3ccc(C(=O)O)c(OC4CCC4)c3)ncn2)cc2cccnc12` [Ex 263] were 524 nM and 425 nM.
The corresponding values for `O=C(O)c1ccc(-c2cc(NCCc3cc(Cl)c4c(c3)OCCO4)ncn2)cc1OC1CCC1` [Ex 246] are 534 nM and 364 nM.
Taken in the same sequence, the figures for `Cc1c(CCNc2cc(-c3ccc(C(=O)O)c(OCCO)c3)ncn2)ccc2ccccc12` [Ex 234] were 113 nM and 325 nM.
For the compound `CCOc1cc(-c2cc(NCCc3ccc4[nH]ccc4c3)ncn2)ccc1OCC(=O)O` [Ex 225, (2-Ethoxy-4-{6-[2-(1H-indol-5-yl)-ethylamino]-pyrimidin-4-yl}-phenoxy)-acetic acid], the IC50 was found to be 923 nM against EP2 and 289 nM on EP4.
Taken in the same sequence, the figures for `CCOc1cc2ccccc2cc1CCNc1cc(-c2ccc(OC(C)(C)C(=O)O)c(OCC)c2)ncn1` [Ex 245] were 304 nM and 358 nM.
As for `c1nc(NCCc2ccc3cc[nH]c3c2)cc(-c2ccc3cc[nH]c3c2)n1` [Ex 267, [2-(1H-Indol-6-yl)-ethyl]-[6-(1H-indol-6-yl)-pyrimidin-4-yl]-amine], the IC50 against EP2 came to 306 nM; against EP4 it was 431 nM.
Turning to `CCOc1cc(-c2cc(NCCc3ccc4ccccc4c3Cl)ncn2)ccc1C(=O)O` [Ex 260], the values for the IC50 at EP2 and at EP4 were 880 nM and 404 nM, respectively.
With `CCOc1cc(-c2cc(NCCc3ccc4sccc4c3)ncn2)ccc1OC(C)(C)C(=O)O` [Ex 321], the IC50 came out at 562 nM against EP2 and 772 nM against EP4.
For `CCSc1cc(-c2cc(NCCc3ccc4sccc4c3)ncn2)ccc1C(=O)O` [Ex 222], the results for the IC50 against EP2 and against EP4 were 279 nM and 287 nM, respectively.
